Laboratory results published in US20130303605A1, “EXTERNAL COMPOSITION FOR SKIN CONTAINING MANASSANTIN B AS ACTIVE INGREDIENT AND THE USE THEREOF FOR SKIN WHITENING” (Amorepacific Corporation, priority 2006, published 2013).

What was measured:
[1] = system: melan-a cells and SP-1 cells; experiment: Inhibition of melanin synthesis in coculture of melanocytes and keratinocytes; type: cell-based, mouse
Method: Melanocytes were cultured in the same manner as in the step 1 of Test Example 1. Mouse keratinocytes SP-1 cells were cultured to a confluency of […] in 8% fetal bovine serum-containing s-MEM medium in a 10% CO2 incubator, while the medium was replaced with fresh medium at 3-days intervals.
The melan-a cells and SP-1 cells cultured in the step were separated with 0.25% Trypsin-EDTA and spread together on a 12-well plate at a ratio of 1:10 at cell densities of 1×10^4 cells/well for melan-a and 1×10^5 cells/well for SP-1. Then, the cells were left to stand for 24 hours. The cells were treated with manassantin B at various concentrations, and after 5 days, the cells were collected with 1N NaOH. The collected cells were measured for absorbance at 405 nm and measured for protein concentration using the Lowry method.

[2] = system: melanophilin and myosin 5a; experiment: Inhibition of binding between melanophilin and myosin 5a (plate binding, chemiluminescence); settings: his-GFP-mlphCT on nickel-coated plate, Flag-MyosinVa GT, chemiluminescence (FIG. 2)
Excerpt: Proteins required in the test were produced in large amounts using a suitable system (E. coli) or baculovirus. Herein, the designed proteins essentially included domains known to be required for protein interaction and contained GST, His tag or flag tag such that the produced proteins could be easily purified and isolated. Each of a histidine tagged-GFP-melanophilin recombinant protein and a Flag-MyosinVa recombinant protein, which were to be used as bait proteins, were expressed in a baculovirus system, cells containing the proteins were disrupted, and then extracts were prepared. Flag-MyosinVa GT was prepared into an extract with PBS TG buffer solution, and then purified by flag-affinity chromatography.
The his-GFP-mlphCT protein prepared in the step 1 was bound to a nickel-coated plate through reaction. To the plate, binding partner Flag-MyosinVa GT was bound, and then an M2 antibody recognizing the flag was bound. The plate was subjected to color development reaction by chemiluminescence to measure the degree of binding between the proteins.

tyrosinase = target: T1, tyrosinase (Mus musculus, UniProt P11344); experiment: Tyrosinase activity inhibition in melanocyte lysate (L-DOPA, absorbance 490 nm); type: biochemical; settings: melan-a cell lysate, 1 hour with various concentrations, absorbance at 490 nm (FIG. 3)
T1 construct: disrupted with 0.1M phosphate buffer (containing 1% triton x-100); endogenous in cells; host or cells: cultured melanocytes (melan-a), cell lysate supernatant
T1 sequence (P11344 19-533): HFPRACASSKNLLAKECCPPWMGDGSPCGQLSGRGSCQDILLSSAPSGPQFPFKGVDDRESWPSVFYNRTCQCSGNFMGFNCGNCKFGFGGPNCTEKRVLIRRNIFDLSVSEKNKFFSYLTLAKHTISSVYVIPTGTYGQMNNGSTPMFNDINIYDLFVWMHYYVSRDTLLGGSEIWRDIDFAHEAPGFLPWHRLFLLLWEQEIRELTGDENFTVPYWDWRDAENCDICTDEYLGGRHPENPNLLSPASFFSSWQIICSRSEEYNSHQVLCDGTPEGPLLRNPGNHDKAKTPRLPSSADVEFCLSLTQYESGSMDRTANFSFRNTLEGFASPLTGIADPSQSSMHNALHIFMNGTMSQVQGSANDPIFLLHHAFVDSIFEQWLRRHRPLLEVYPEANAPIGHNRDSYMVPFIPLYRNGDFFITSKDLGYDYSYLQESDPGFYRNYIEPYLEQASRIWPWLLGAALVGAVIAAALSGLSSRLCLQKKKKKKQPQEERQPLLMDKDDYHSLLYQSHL
Method: Melanocytes were cultured in the same manner as in the step 1 of Test Example 1.
The cells cultured in the step 1 were washed once with cold PBS, and then disrupted with 0.1M phosphate buffer (containing 1% triton x-100). Then, the cells were centrifuged at 1400 rpm for 20 minutes, and the cell supernatant was isolated. 40 μg of the protein thus prepared was mixed with various concentrations of manassantin B and allowed to react for 1 hour. The reaction material was treated with 2 mg/ml of L-DOPA solution and left to stand 37° C.

melan-a cells = experiment: Inhibition of melanosome transfer at cell level (optical microscope observation); type: cell-based, mouse; settings: various concentrations, after 4 days, optical microscope (FIG. 1)
Method: Melan-a Cells, Immortalized Mouse Melanocytes, Were cultured to a confluency of 90% in 10% fetal bovine serum-containing RPMI 1640 medium in a 10% CO2 incubator, while the medium was replaced with fresh medium at 3-day intervals.
The melan-a cells cultured in the step 1 were separated using 0.25% trypsin-EDTA and spread on a 6-well plate at a density of 3×10^5 cells/well. Then, the cells were left to stand for 24 hours.

[3] = system: acyl CoA cholesterol acyltransferase; settings: Korean Patent Application No. 10-2003-0080397; cited from earlier work

COc1ccc([C@@H](O)[C@@H](C)Oc2ccc([C@H]3O[C@H](c4ccc(O[C@H](C)[C@H](O)c5ccc6c(c5)OCO6)c(OC)c4)[C@H](C)[C@H]3C)cc2OC)cc1OC [manassantin B]
inhibition at 0.02 ppm ([1]; Mus musculus, 120 h, coculture melan-a:SP-1 1:10, 5 days, manassantin B concentration of 0.02 ppm): ~50%
inhibition of melanin synthesis ([1]; coculture melan-a:SP-1 1:10, various concentrations, 5 days (FIG. 4)): inhibited melanin synthesis in a concentration-dependent manner
degree of binding between melanophilin and myosin 5a [2]: inhibited the binding
inhibition of tyrosinase activity (tyrosinase): did not directly inhibit
configuration of the cells / distribution (transfer) of melanosomes (melan-a cells): melanosomes were gathered together around the nuclei
inhibition of activity of acyl CoA cholesterol acyltransferase [3]: inhibit the activity of acyl CoA cholesterol acyltransferase
